Structures are written as SMILES. pIC50: −log10 of the molar value. Where only a bound is given, the exact number is not on record here.

The test deals with WT Mtb Erdman strain. Kind of test: Microplate Alamar Blue Assay (MABA), Mtb growth inhibition. The class given is cell-based, Mycobacterium tuberculosis. As to conditions: Mycobacterium tuberculosis, ERDMAN, 168 h, Middlebrook 7H9 media, 7 days at 37° C. in 5% CO2. (Resazurin is reduced to fluorescent resorufin, in cell work by metabolically active cells.)
Compound `CCc1nc(NCCCc2ccc(-c3ccc(Cl)c(F)c3)cc2)c2cc(C)sc2n1` [Example 301, N-(3-(4′-chloro-3′-fluoro-[1,1′-biphenyl]-4-yl)propyl)-2-ethyl-6-methylthieno[2,3-d]pyrimidin-4-amine] gave a pIC50 of 7.35.

Consider `COc1nc(NCCCc2ccc(-c3cnc(F)cn3)cc2)c2cc(C)sc2n1` [Example 561, N-(3-[4-(5-fluoropyrazin-2-yl)phenyl]propyl)-2-methoxy-6-methylthieno[2,3-d]pyrimidin-4-amine], for which the pIC50 is 7.51.

`CSc1nc(NCCCc2ccc(-c3cnc(F)cn3)cc2)c2nc(C)sc2n1` [Example 424, N-(3-[4-(5-fluoropyrazin-2-yl)phenyl]propyl)-2-methyl-5-(methylsulfanyl)-[1,3]thiazolo[5,4-d]pyrimidin-7-amine] gave a pIC50 of 7.39.

Compound `Cc1cc2c(NCCCc3ccc(-c4ccc(OC(F)(F)F)cc4)cc3)nc(-c3cc[nH]c3)nc2s1` [Example 568, 6-methyl-2-(1H-pyrrol-3-yl)-N-(3-(4′-(trifluoromethoxy)-[1,1′-biphenyl]-4-yl)propyl)thieno[2,3-d]pyrimidin-4-amine] had a pIC50 of less than 6.00.

Compound `Cc1cc2c(NCCC(O)c3ccccc3)nc(C(F)(F)F)nc2s1` (centres unmarked) [Example 171, 3-((6-methyl-2-(trifluoromethyl)thieno [2,3-d]pyrimidin-4-yl)amino)-1-phenylpropan-1-ol] gave a negative logarithm of the IC50 (pIC50) of less than 5.02.

Regarding `Cc1nc(-c2nc(NCCCc3ccccc3)c3cc(C)sc3n2)co1` [Example 141, 6-methyl-2-(2-methyloxazol-4-yl)-N-(3-phenylpropyl)thieno [2,3-d]pyrimidin-4-amine], the pIC50 is 5.92.

`Cc1cc2c(NCCCc3ccc(-c4ccc(OC(F)(F)F)cc4)cc3)nc(C3CCC3)nc2s1` [Example 453, 2-cyclobutyl-6-methyl-N-(3-(4′-(trifluoromethoxy)-[1,1′-biphenyl]-4-yl)propyl)thieno[2,3-d]pyrimidin-4-amine] had a pIC50 of 7.24.

In turn, `CCc1nc(NCCc2cccc(C(F)(F)F)c2)c2cc(C)sc2n1` [Example 20, 2-ethyl-6-methyl-N-(3-(trifluoromethyl)phenethyl)thieno[2,3-d]pyrimidin-4-amine] had a pIC50 of 5.31.

With `CSc1nc(NCCCc2ccc(-c3ccc(OC(F)(F)F)cc3)cc2)c2cc(C)sc2n1` [Example 289, 6-methyl-2-(methylthio)-N-(3-(4′-(trifluoromethoxy)-[1,1′-biphenyl]-4-yl)propyl)thieno [2,3-d]pyrimidin-4-amine], the pIC50 is 8.10.

Compound `CCc1nc(NCCCc2ccc(F)c(F)c2)c2cc(C)sc2n1` [Example 59, N-(3-(3,4-difluorophenyl)propyl)-2-ethyl-6-methylthieno[2,3-d]pyrimidin-4-amine] had a pIC50 of 6.37.

In turn, `CCc1nc(NCCCc2ccc(-c3cccc(S(C)(=O)=O)c3)cc2)c2cc(C)sc2n1` [Example 283, 2-ethyl-6-methyl-N-(3-(3′-(methylsulfonyl)-[1,1′-biphenyl]-4-yl)propyl)thieno [2,3-d]pyrimidin-4-amine] had a pIC50 of 5.49.

Turning to `Cc1cc2c(NCCCc3ccc(Br)cc3)nc(C(F)(F)F)nc2s1` [Example 204, N-(3-(4-bromophenyl)propyl)-6-methyl-2-(trifluoromethyl) thieno[2,3-d] pyrimidin-4-amine], the pIC50 is 5.72.

For `Cc1cc2c(NCCCc3ccc(-c4cccc(C#N)c4)cc3)nc(-c3ccoc3)nc2s1` [Example 327, 4′-(3-([2-(furan-3-yl)-6-methylthieno[2,3-d]pyrimidin-4-yl]amino)propyl)-[1,1′-biphenyl]-3-carbonitrile], the pIC50 was 7.00.

With `Cc1cc2c(N[C@@H]3C[C@H]3c3ccc(F)c(F)c3)nc(C(F)(F)F)nc2s1` [Example 28, N-((1R,2S)-2-(3,4-difluorophenyl)cyclopropyl)-6-methyl-2-(trifluoromethyl) thieno [2,3-d]pyrimidin-4-amine], the pIC50 is 5.68. Compared with the last compound, the pIC50 is 1.32 log units lower.

Regarding `Cc1cc2c(N[C@@H]3C[C@H]3c3ccc(F)c(F)c3)nc(OCC(F)(F)F)nc2s1` [Example 226, N-((1R,2S)-2-(3,4-difluorophenyl)cyclopropyl)-6-methyl-2-(2,2,2-trifluoroethoxy)thieno [2,3-d]pyrimidin-4-amine], the pIC50 was 5.92.

`Cc1cc2c(NCCCc3ccc(-c4ccc(OC(F)(F)F)cc4)cc3)nc(-c3cccn3C)nc2s1` [Example 440, 6-methyl-2-(1-methyl-1H-pyrrol-2-yl)-N-(3-(4′-(trifluoromethoxy)-[1,1′-biphenyl]-4-yl)propyl)thieno[2,3-d]pyrimidin-4-amine]: the negative logarithm of the IC50 (pIC50) is 5.09.

In turn, `CCc1nc(NCCCc2cccc(C(F)(F)F)c2)c2cc(C)sc2n1` [Example 190, 2-ethyl-6-methyl-N-(3-(3-(trifluoromethyl)phenyl)propyl) thieno[2,3-d] pyrimidin-4-amine] had a pIC50 of 6.26.

`Cc1cc2c(NCCCc3ccc(-c4ccc(Cl)cc4)cc3)nc(-c3ccoc3)nc2s1` [Example 434, N-(3-(4′-chloro-[1,1′-biphenyl]-4-yl)propyl)-2-(furan-3-yl)-6-methylthieno[2,3-d]pyrimidin-4-amine] gave a pIC50 of 8.00.

Take `Cc1cc2c(NCCCc3ccccc3)nc(-c3cc[nH]n3)nc2s1` [Example 112, 6-methyl-N-(3-phenylpropyl)-2-(1H-pyrazol-3-yl)thieno[2,3-d]pyrimidin-4-amine]: the pIC50 is 5.55.

For the compound `Cc1cc2c(NCCCc3ccccc3)nc(C3CCC3)nc2s1` [Example 106, 2-cyclobutyl-6-methyl-N-(3-phenylpropyl)thieno [2,3-d]pyrimidin-4-amine], the pIC50 is 6.31.

On to `CCc1nc(NCCS(=O)(=O)c2ccccc2)c2cc(C)sc2n1` [Example 68, 2-ethyl-6-methyl-N-(2-(phenylsulfonyl)ethyl) thieno[2,3-d]pyrimidin-4-amine], for which the pIC50 is less than 5.00.

Take `Cc1cc2c(NCCCc3ccc(-c4ccc([N+](=O)[O-])cc4)cc3)nc(-c3cc[nH]c3)nc2s1` [Example 569, 6-methyl-N-(3-(4′-nitro-[1,1′-biphenyl]-4-yl)propyl)-2-(1H-pyrrol-3-yl)thieno[2,3-d]pyrimidin-4-amine]: the negative-log IC50 (pIC50) was 7.15.

As to `Cc1cc2c(NCCCc3ccc(-c4ccoc4)cc3)nc(-c3ccoc3)nc2s1` [Example 338, 2-(furan-3-yl)-N-(3-[4-(furan-3-yl)phenyl]propyl)-6-methylthieno[2,3-d]pyrimidin-4-amine], the pIC50 was 7.82. Compared with the last compound, the pIC50 is 0.67 log units higher.

The compound `Cc1cc2c(NCCCc3ccc(-c4ccnc(O)c4)cc3)nc(-c3ccoc3)nc2s1` [Example 390, 4-[4-(3-([2-(furan-3-yl)-6-methylthieno[2,3-d]pyrimidin-4-yl]amino)propyl)phenyl]pyridin-2-ol] had a pIC50 of 5.03. This pIC50 is 2.79 log units lower than that of the compound before.

For the compound `Cc1cc2c(NCCCc3ccc(-c4cnc(N(C)C)cn4)cc3)nc(-c3ccoc3)nc2s1` [Example 381, 5-[4-(3-([2-(furan-3-yl)-6-methylthieno[2,3-d]pyrimidin-4-yl]amino)propyl)phenyl]-N,N-dimethyl-pyrazin-2-amine], the pIC50 was 7.41.

As to `FC(F)(F)Oc1ccc(-c2ccc(CCCNc3nc(C(F)(F)F)nc4sccc34)cc2)cc1` [Example 296, N-(3-(4′-(trifluoromethoxy)-[1,1′-biphenyl]-4-yl)propyl)-2-(trifluoromethyl) thieno[2,3-d]pyrimidin-4-amine], the pIC50 was 6.57.

As usually defined, the pIC50 is the IC50 on a negative log10 scale, so that one unit is a factor of ten.
